According to PubChem BioAssay AID248 (DTP/NCI, 2004):
Several values for one entry are separate records, joined by “and”; a condition that tells them apart may be missing. Identical values can stand only once. Toxic doses and inconclusive results are not listed. No stated cut-off is given here; in the data, active means T/C of 150% or more; inactive means T/C below 125%. Square brackets hold non-standard residues; d marks the D form. Peptide text beside a SMILES is read from it. * marks the point of attachment. ξ: configuration not given here. ξW = NC(Cc1c[nH]c2ccccc12)C(=O)O; Cbz = O=C(OCc1ccccc1)*

System: L1210 leukemia ip in BDF1 mice, survival T/C
Test: NCI In Vivo Anticancer Drug Screen. Data for tumor model L1210 Leukemia (intraperitoneal) in B6D2F1 (BDF1) mice
Details: endpoint: mean survival time, higher = longer survival
Procedure, shortened: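 Value reflects the ratio of survival in compound-treated mice to survival in vehicle-treated controls, with both groups carrying the same transplanted tumor.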

[1] = dose: 100.0 mg/kg/injection, schedule: Q01DX009 (ip), vehicle: carboxymethylcellulose (CMC)
[2] = dose: 100.0 mg/kg/injection, schedule: Q04DX002 (ip), vehicle: Klucel (hydroxypropylcellulose) (HPC)
[3] = dose: 100.0 mg/kg/injection, schedule: Q04DX003 (ip), vehicle: carboxymethylcellulose (CMC)
[4] = dose: 200.0 mg/kg/injection, schedule: Q01DX009 (ip), vehicle: carboxymethylcellulose (CMC)
[5] = dose: 200.0 mg/kg/injection, schedule: Q04DX002 (ip), vehicle: Klucel (hydroxypropylcellulose) (HPC)
[6] = dose: 200.0 mg/kg/injection, schedule: Q04DX002 (ip), vehicle: carboxymethylcellulose (CMC)
[7] = dose: 200.0 mg/kg/injection, schedule: Q04DX003 (ip), vehicle: carboxymethylcellulose (CMC)
[8] = dose: 400.0 mg/kg/injection, schedule: Q04DX002 (ip), vehicle: Klucel (hydroxypropylcellulose) (HPC)
[9] = dose: 400.0 mg/kg/injection, schedule: Q04DX002 (ip), vehicle: carboxymethylcellulose (CMC)
[10] = dose: 100.0 mg/kg/injection, schedule: Q01DX001 (ip), vehicle: saline
[11] = dose: 200.0 mg/kg/injection, schedule: Q01DX001 (ip), vehicle: saline
[12] = dose: 400.0 mg/kg/injection, schedule: Q01DX001 (ip), vehicle: saline
[13] = dose: 100.0 mg/kg/injection, schedule: Q04DX003 (ip), vehicle: saline with Tween-80
[14] = dose: 200.0 mg/kg/injection, schedule: Q04DX003 (ip), vehicle: saline with Tween-80
[15] = dose: 400.0 mg/kg/injection, schedule: Q04DX003 (ip), vehicle: saline with Tween-80
[16] = dose: 100.0 mg/kg/injection, schedule: Q01DX001 (ip), vehicle: carboxymethylcellulose (CMC)
[17] = dose: 200.0 mg/kg/injection, schedule: Q01DX001 (ip), vehicle: carboxymethylcellulose (CMC)
[18] = dose: 100.0 mg/kg/injection, schedule: Q01DX Z (ip), vehicle: methylcellulose (MC)
[19] = dose: 75.0 mg/kg/injection, schedule: Q01DX001 (ip), vehicle: saline
[20] = dose: 150.0 mg/kg/injection, schedule: Q01DX001 (ip), vehicle: saline

Measured: T/C

N#Cc1ccccc1NC(=O)N(CCCl)N=O
inactive: dose: 2.0 mg/kg/injection, schedule: Q01DX001 (ip), vehicle: carboxymethylcellulose (CMC) 119 % of control | dose: 13.0 mg/kg/injection, schedule: Q01DX009 (ip), vehicle: carboxymethylcellulose (CMC) 124 % of control | dose: 13.3 mg/kg/injection, schedule: Q01DX001 (ip), vehicle: carboxymethylcellulose (CMC) 120 % of control | dose: 20.0 mg/kg/injection, schedule: Q01DX009 (ip), vehicle: carboxymethylcellulose (CMC) 105 % of control | dose: 30.0 mg/kg/injection, schedule: Q01DX009 (ip), vehicle: carboxymethylcellulose (CMC) 108 % of control

COc1ccc(C(=O)Nc2ccc(F)cc2)cc1
inactive: [1] 100 % of control and 105 % of control | [2] 115 % of control | dose: 100.0 mg/kg/injection, schedule: Q04DX002 (ip), vehicle: carboxymethylcellulose (CMC) 103 % of control | [3] 101 % of control | [4] 94 % of control and 89 % of control | [5] 102 % of control | [6] 93 % of control and 95 % of control | [7] 106 % of control | dose: 400.0 mg/kg/injection, schedule: Q01DX009 (ip), vehicle: carboxymethylcellulose (CMC) 87 % of control | [8] 108 % of control | [9] 93 % of control and 100 % of control | dose: 400.0 mg/kg/injection, schedule: Q04DX003 (ip), vehicle: carboxymethylcellulose (CMC) 102 % of control

CCOc1ccc(Nc2ncnc3nc[nH]c23)cc1CN(CCCl)CCCl
inactive: dose: 1.2 mg/kg/injection, schedule: Q01DX Z (ip), vehicle: carboxymethylcellulose (CMC) 98 % of control | dose: 1.3 mg/kg/injection, schedule: Q01DX Z (ip), vehicle: carboxymethylcellulose (CMC) 114 % of control | dose: 1.56 mg/kg/injection, schedule: Q04DX003 (ip), vehicle: saline 113 % of control | dose: 1.9 mg/kg/injection, schedule: Q01DX Z (ip), vehicle: carboxymethylcellulose (CMC) 117 % of control | dose: 2.5 mg/kg/injection, schedule: Q01DX Z (ip), vehicle: carboxymethylcellulose (CMC) 103 % of control | dose: 3.3 mg/kg/injection, schedule: Q04DX003 (ip), vehicle: saline 111 % of control | dose: 4.2 mg/kg/injection, schedule: Q01DX Z (ip), vehicle: carboxymethylcellulose (CMC) 116 % of control | dose: 5.0 mg/kg/injection, schedule: Q01DX001 (ip), vehicle: carboxymethylcellulose (CMC) 104 % of control | dose: 5.0 mg/kg/injection, schedule: Q01DX Z (ip), vehicle: carboxymethylcellulose (CMC) 116 % of control | dose: 5.0 mg/kg/injection, schedule: Q04DX003 (ip), vehicle: saline 122 % of control | dose: 7.5 mg/kg/injection, schedule: Q04DX003 (ip), vehicle: saline 121 % of control | dose: 10.0 mg/kg/injection, schedule: Q01DX001 (ip), vehicle: carboxymethylcellulose (CMC) 102 % of control | dose: 10.0 mg/kg/injection, schedule: Q01DX Z (ip), vehicle: carboxymethylcellulose (CMC) 110 % of control | dose: 20.0 mg/kg/injection, schedule: Q01DX001 (ip), vehicle: carboxymethylcellulose (CMC) 109 % of control | dose: 40.0 mg/kg/injection, schedule: Q01DX001 (ip), vehicle: carboxymethylcellulose (CMC) 102 % of control

Cc1cccc(NC(=O)N(O)C2(C#N)CCCCC2)c1
inactive: [10] 93 % of control | [11] 96 % of control | [12] 98 % of control

O=C1C=C(C23CC4CC(CC(C4)C2)C3)Nc2ccccc2N1
inactive: [2] 94 % of control | [5] 105 % of control | [8] 94 % of control

CC(C)(C)OC(=O)c1cc([N+](=O)[O-])cc([N+](=O)[O-])c1
inactive: [2] 104 % of control | [5] 104 % of control | [8] 107 % of control

O=C1c2ccccc2C(C(C/C(=N/O)c2ccccc2)c2ccccc2)c2ccccc21 (stereo not drawn)
inactive: [13] 93 % of control | [14] 93 % of control | [15] 100 % of control

CCCCCCCCCC(=O)N1CCCCC1C (stereo not drawn)
inactive: dose: 25.0 mg/kg/injection, schedule: Q04DX002 (ip), vehicle: carboxymethylcellulose (CMC) 97 % of control and 99 % of control | dose: 50.0 mg/kg/injection, schedule: Q01DX001 (ip), vehicle: carboxymethylcellulose (CMC) 93 % of control | dose: 50.0 mg/kg/injection, schedule: Q01DX009 (ip), vehicle: carboxymethylcellulose (CMC) 98 % of control and 103 % of control | dose: 50.0 mg/kg/injection, schedule: Q04DX002 (ip), vehicle: carboxymethylcellulose (CMC) 96 % of control and 97 % of control | dose: 50.0 mg/kg/injection, schedule: Q04DX003 (ip), vehicle: carboxymethylcellulose (CMC) 95 % of control | [16] 93 % of control | [1] 94 % of control and 100 % of control | [3] 97 % of control | [17] 96 % of control | [4] 100 % of control and 104 % of control | [6] 107 % of control and 92 % of control | [7] 95 % of control | [9] 103 % of control and 90 % of control

NC1=CCNC(=O)N1c1ccccc1
inactive: [18] 105 % of control

O=C(/C=C\c1cccc([N+](=O)[O-])c1)c1ccc(F)cc1
inactive: [2] 100 % of control | [5] 94 % of control | [8] 98 % of control

COC(=O)C(Cc1c[nH]c2ccccc12)NC(=O)CNC(=O)CNC(=O)OCc1ccccc1 (stereo not drawn) (Cbz-Gly-Gly-[ξW]-OMe)
inactive: [13] 105 % of control | [14] 101 % of control | [15] 100 % of control

CC(C)(C)NS(=O)(=O)c1ccc(Cl)c([N+](=O)[O-])c1
inactive: dose: 100.0 mg/kg/injection, schedule: Q04DX003 (ip), vehicle: Klucel (hydroxypropylcellulose) (HPC) 95 % of control | dose: 200.0 mg/kg/injection, schedule: Q04DX003 (ip), vehicle: Klucel (hydroxypropylcellulose) (HPC) 93 % of control | dose: 400.0 mg/kg/injection, schedule: Q04DX003 (ip), vehicle: Klucel (hydroxypropylcellulose) (HPC) 90 % of control

NCC1OC(OC2C(CO)OC(OC3C(O)C(N)CC(N)C3OC3OC(CN)C(O)C(O)C3N)C2O)C(N)C(O)C1O (stereo not drawn)
inactive: dose: 37.5 mg/kg/injection, schedule: Q01DX001 (ip), vehicle: saline 100 % of control | [19] 105 % of control | [20] 111 % of control

CC(C)(C#N)CCCCCC(C)(C)C#N
inactive: dose: 50.0 mg/kg/injection, schedule: Q01DX001 (ip), vehicle: saline 100 % of control | [10] 96 % of control | [11] 100 % of control | [12] 97 % of control

SC1c2cc(Cl)ccc2-c2c(Cl)cc(Cl)cc21 (stereo not drawn)
inactive: [16] 93 % of control | [17] 98 % of control | dose: 400.0 mg/kg/injection, schedule: Q01DX001 (ip), vehicle: carboxymethylcellulose (CMC) 117 % of control

O=C(C[n+]1ccccc1/C=N/Nc1ccccc1)c1ccccc1
inactive: [19] 95 % of control | [20] 95 % of control | dose: 300.0 mg/kg/injection, schedule: Q01DX001 (ip), vehicle: saline 97 % of control

Cc1c(Cl)cccc1NC(=O)NCCc1ccccc1
inactive: dose: 100.0 mg/kg/injection, schedule: Q01DX009 (ip), vehicle: saline with Tween-80 94 % of control and 101 % of control | dose: 100.0 mg/kg/injection, schedule: Q04DX002 (ip), vehicle: saline with Tween-80 100 % of control and 103 % of control | [13] 100 % of control | dose: 200.0 mg/kg/injection, schedule: Q01DX009 (ip), vehicle: saline with Tween-80 101 % of control and 104 % of control | dose: 200.0 mg/kg/injection, schedule: Q04DX002 (ip), vehicle: saline with Tween-80 93 % of control and 97 % of control | [14] 101 % of control | dose: 400.0 mg/kg/injection, schedule: Q01DX009 (ip), vehicle: saline with Tween-80 100 % of control and 101 % of control | dose: 400.0 mg/kg/injection, schedule: Q04DX002 (ip), vehicle: saline with Tween-80 96 % of control and 97 % of control | [15] 101 % of control

C=CCOCC(O)CN(CCCC)CCCC (stereo not drawn)
inactive: dose: 25.0 mg/kg/injection, schedule: Q01DX009 (ip), vehicle: saline with Tween-80 95 % of control | dose: 50.0 mg/kg/injection, schedule: Q01DX009 (ip), vehicle: saline with Tween-80 97 % of control

Cc1ccc(NCC(=O)O)cc1
inactive: [18] 101 % of control | dose: 200.0 mg/kg/injection, schedule: Q01DX Z (ip), vehicle: methylcellulose (MC) 101 % of control

CCOc1ccc(NC(=O)OCCN2CCN(CCc3ccccc3)C(C)C2)cc1 (stereo not drawn)
inactive: [10] 98 % of control | [11] 95 % of control

COc1ccccc1NC(=O)N(Cc1ccccc1)C(C)(C)C
inactive: [2] 95 % of control | [5] 100 % of control | [8] 88 % of control
